Test results reported in ChEMBL document CHEMBL3045894, “GLUTATHIONE SYNTHESIS IN FILARIAL WORMS: AN ATTRACTIVE TARGET FOR THE DESIGN AND SYNTHESIS OF NEW ANTIFILARIALS” (Med Chem Res, 2004).
Activity calls are given as the source filed them. The calls are words filed in the database; no cut-off is given here.

The compounds below were run against T1, Probable glutathione reductase 2 (Caenorhabditis elegans) (UniProt P30635) (assay: Inhibition of Setaria cervi glutathione reductase at 2 to 200 uM).
T1 sequence (whole entry): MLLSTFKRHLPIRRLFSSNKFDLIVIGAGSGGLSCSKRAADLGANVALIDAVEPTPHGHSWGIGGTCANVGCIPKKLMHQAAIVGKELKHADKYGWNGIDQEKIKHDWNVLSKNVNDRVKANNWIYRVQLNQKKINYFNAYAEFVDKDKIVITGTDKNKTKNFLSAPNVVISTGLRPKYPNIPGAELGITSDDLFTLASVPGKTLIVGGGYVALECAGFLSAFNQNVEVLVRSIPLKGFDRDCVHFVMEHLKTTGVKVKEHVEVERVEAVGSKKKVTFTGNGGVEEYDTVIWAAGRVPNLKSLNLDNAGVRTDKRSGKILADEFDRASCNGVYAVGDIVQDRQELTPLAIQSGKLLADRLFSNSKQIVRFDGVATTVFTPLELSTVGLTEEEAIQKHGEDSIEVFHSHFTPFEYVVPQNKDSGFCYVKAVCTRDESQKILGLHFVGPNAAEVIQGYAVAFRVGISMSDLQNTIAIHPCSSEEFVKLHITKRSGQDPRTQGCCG
An inhibition of 24% was found for `CN(C)c1ccc2nc3ccc(=[N+](C)C)cc-3sc2c1` in this work.

What follows are compounds tested against T2, Glutathione reductase, mitochondrial (Mus musculus) (UniProt P47791) (assay: Inhibition of Mus musculus (mouse) glutathione reductase isolated from liver at 200 uM).
T2 sequence (whole entry): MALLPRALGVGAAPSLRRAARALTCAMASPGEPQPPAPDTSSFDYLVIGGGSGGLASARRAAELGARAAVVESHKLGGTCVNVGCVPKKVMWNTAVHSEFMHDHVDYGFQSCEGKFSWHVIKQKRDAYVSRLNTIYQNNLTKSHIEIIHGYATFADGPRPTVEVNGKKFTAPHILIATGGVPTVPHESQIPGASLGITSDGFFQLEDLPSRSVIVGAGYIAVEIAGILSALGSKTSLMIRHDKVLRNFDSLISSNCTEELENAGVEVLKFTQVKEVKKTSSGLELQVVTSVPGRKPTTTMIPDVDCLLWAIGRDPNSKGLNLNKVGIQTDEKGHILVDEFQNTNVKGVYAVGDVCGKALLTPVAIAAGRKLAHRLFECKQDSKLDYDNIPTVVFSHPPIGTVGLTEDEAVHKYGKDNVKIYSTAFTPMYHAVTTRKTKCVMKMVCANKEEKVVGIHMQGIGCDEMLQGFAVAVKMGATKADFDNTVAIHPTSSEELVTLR
In the case of `CCCCCCCNC(CC(=O)O)[C@@H]1O[C@@H]2OC(C)(C)O[C@@H]2[C@H]1OC` (stereo partly drawn), the inhibition is reported as “inactive”. `CCCCCCCN[C@@H](CC(=O)OCC)[C@@H]1O[C@@H]2OC(C)(C)O[C@@H]2[C@H]1OC` was tested, and the inhibition was “inactive”. With `CCOC(=O)C[C@H](C[C@H]1O[C@@H]2OC(C)(C)O[C@@H]2[C@H]1OC)NCc1ccccc1O` the inhibition was “inactive”. For `CCCCCCCCCCCCNC(CC(=O)NO)[C@H]1O[C@@H]2OC(C)(C)O[C@@H]2[C@H]1OCc1ccccc1` (stereo partly drawn), the inhibition was “inactive”. In the case of `COc1ccc(CN2C(=O)N(c3ccc(C(C)=O)cc3)C(=O)C[C@H]2[C@H]2O[C@@H]3OC(C)(C)O[C@@H]3[C@H]2OCc2ccccc2)cc1`, the inhibition is reported as “inactive”. With `CCOC(=O)C[C@@H](Nc1ccccc1O)[C@H]1O[C@@H]2OC(C)(C)O[C@@H]2[C@H]1OC` the inhibition was “inactive”. `CCOC(=O)CC(Nc1ccco1)[C@H]1O[C@@H]2OC(C)(C)O[C@@H]2[C@H]1OCc1ccccc1` (stereo partly drawn) was tested, and the inhibition was “inactive”. With `CC(=O)c1cccc(N2C(=O)[C@H](CC(C)C)N(C[C@H]3O[C@@H]4OC(C)(C)O[C@@H]4[C@H]3OCc3ccccc3)C2=O)c1` the inhibition was “inactive”. An inhibition of 71% was found for `CCCCCCCCCCCCCCCCNC(CC(=O)NO)[C@H]1O[C@@H]2OC(C)(C)O[C@@H]2[C@H]1OC` (stereo partly drawn) in this work. In the case of `CCCc1nccn1C(CC(=O)OCC)[C@H]1O[C@@H]2OC(C)(C)O[C@@H]2[C@H]1OC` (stereo partly drawn), the inhibition is reported as “inactive”. In the case of `CC1(C)O[C@H]2O[C@H]([C@@H]3CC(=O)N(Cc4ccccc4)C(=O)N3Cc3ccccc3)[C@H](OCc3ccccc3)[C@H]2O1`, the inhibition is reported as “inactive”. `CCOC(=O)CC([C@H]1O[C@@H]2OC(C)(C)O[C@@H]2[C@H]1OC)N(CCC(C)CC(C)C)C(=O)NCc1ccccc1` (stereo partly drawn) was tested, and the inhibition was “inactive”. For `CC1(C)O[C@H]2O[C@H](C(CC(=O)NO)NCc3ccccc3)[C@H](OCc3ccccc3)[C@H]2O1` (stereo partly drawn), the inhibition was “inactive”. `CC1(C)O[C@H]2O[C@H](C(CC(=O)NO)N3CCCCC3)[C@H](OCc3ccccc3)[C@H]2O1` (stereo partly drawn) was tested, and the inhibition was “inactive”. With `CCOC(=O)CC([C@H]1O[C@@H]2OC(C)(C)O[C@@H]2[C@H]1OC)N1CCC[C@H]1C(=O)OCC1c2ccccc2-c2ccccc21` (stereo partly drawn) the inhibition was “inactive”. `CO[C@@H]1[C@H]2OC(C)(C)O[C@H]2O[C@@H]1C1CC(=O)N(Cc2ccccc2)C(=O)N1CCC(C)CC(C)C` (stereo partly drawn) was tested, and the inhibition was “inactive”. In the case of `CCOC(=O)CC(Nc1ccco1)[C@H]1O[C@@H]2OC(C)(C)O[C@@H]2[C@H]1OC` (stereo partly drawn), the inhibition is reported as “inactive”. In the case of `CCCCCCCNC(CC(=O)NO)[C@H]1O[C@@H]2OC(C)(C)O[C@@H]2[C@H]1OCc1ccccc1` (stereo partly drawn), the inhibition is reported as “inactive”. With `CO[C@@H]1[C@H]2OC(C)(C)O[C@H]2O[C@H]1C(CC(=O)O)NCCC(C)CC(C)C` (stereo partly drawn) the inhibition was “inactive”.

Each compound was assayed against T3, Glutamate--cysteine ligase (Onchocerca volvulus) (UniProt Q9NFN6) (assay: Inhibition of Setaria cervi glutamate cysteine ligase at 0.25 to 200 uM).
T3 sequence (whole entry): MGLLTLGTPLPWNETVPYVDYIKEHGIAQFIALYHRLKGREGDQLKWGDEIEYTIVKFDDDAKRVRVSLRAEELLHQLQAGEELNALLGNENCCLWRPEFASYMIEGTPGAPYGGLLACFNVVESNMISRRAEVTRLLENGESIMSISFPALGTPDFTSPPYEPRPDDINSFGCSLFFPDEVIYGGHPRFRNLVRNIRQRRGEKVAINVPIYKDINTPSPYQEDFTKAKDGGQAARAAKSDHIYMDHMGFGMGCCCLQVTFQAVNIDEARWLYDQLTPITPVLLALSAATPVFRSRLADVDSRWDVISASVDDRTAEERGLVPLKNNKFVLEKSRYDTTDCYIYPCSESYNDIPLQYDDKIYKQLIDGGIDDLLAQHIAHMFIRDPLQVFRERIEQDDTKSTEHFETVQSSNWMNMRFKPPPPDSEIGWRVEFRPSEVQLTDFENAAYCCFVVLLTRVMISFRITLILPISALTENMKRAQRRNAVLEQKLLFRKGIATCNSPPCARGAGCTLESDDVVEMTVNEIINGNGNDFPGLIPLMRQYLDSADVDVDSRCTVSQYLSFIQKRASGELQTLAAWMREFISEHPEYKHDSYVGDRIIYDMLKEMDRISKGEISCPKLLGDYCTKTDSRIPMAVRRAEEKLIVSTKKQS
An inhibition of 19% was found for `NCCSSCCN` in this work.

Each compound was assayed against T4, Glutamate--cysteine ligase catalytic subunit (Mus musculus) (UniProt P97494) (assay: Inhibition of Mus musculus (mouse) glutamate cysteine ligase isolated from liver at 200 uM).
T4 sequence (whole entry): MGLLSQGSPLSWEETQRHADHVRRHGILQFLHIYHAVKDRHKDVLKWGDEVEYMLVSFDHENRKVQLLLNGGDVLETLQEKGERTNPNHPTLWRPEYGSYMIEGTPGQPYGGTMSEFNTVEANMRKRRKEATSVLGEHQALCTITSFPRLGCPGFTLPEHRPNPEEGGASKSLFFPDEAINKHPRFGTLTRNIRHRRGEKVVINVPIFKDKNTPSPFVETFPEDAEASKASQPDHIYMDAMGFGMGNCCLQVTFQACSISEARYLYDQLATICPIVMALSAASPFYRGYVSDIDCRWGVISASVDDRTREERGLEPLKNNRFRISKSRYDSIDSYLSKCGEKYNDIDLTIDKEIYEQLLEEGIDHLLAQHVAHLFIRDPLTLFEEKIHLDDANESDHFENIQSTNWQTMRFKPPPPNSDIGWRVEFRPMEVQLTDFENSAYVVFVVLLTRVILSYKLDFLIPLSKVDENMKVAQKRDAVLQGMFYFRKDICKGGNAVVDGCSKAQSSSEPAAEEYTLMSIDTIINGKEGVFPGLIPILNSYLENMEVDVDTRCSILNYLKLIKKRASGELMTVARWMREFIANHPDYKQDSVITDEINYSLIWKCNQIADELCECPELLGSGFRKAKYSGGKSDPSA
An inhibition of 18% was found for `CO[C@@H]1[C@H]2OC(C)(C)O[C@H]2O[C@@H]1[C@H](CC(N)=O)N(Cc1ccccc1)C(=O)Nc1cccc(C(C)=O)c1` in this work. With `CO[C@@H]1[C@H]2OC(C)(C)O[C@H]2O[C@@H]1[C@@H]1CC(=O)N(Cc2ccccc2)C(=O)N1Cc1ccccc1` the inhibition was “inactive”.
